This note sets out measurements from patent publication US10660877B2 (BRISTOL-MYERS SQUIBB COMPANY, priority 2016, dated 2020).

Test [1] concerns the target human TLR9 (Homo sapiens (Human), UniProt Q9NR96). The test can be described thus: TLR9 inhibition reporter assay (HEK-Blue cells, SEAP reporter, ODN2006 stimulation).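 Also: compounds tested over 0.05 nM to 50 µM, 22 h incubation, inhibition taken as SEAP signal drop from agonist plus DMSO wells toward a known inhibitor control.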 To be noted: read-out: TLR9 IC50, HEK-Blue cells overexpressing human TLR9, ODN2006 5 nM. (Reporter assays use an easily measured gene product as a stand-in for the process of interest.)
In test [2] the target is human TLR7 (Homo sapiens (Human), UniProt Q9NYK1). Nature of the test: TLR7 inhibition reporter assay (HEK-Blue cells, SEAP reporter, gardiquimod stimulation). It is filed as cell-based. To be noted: HEK-Blue cells overexpressing human TLR7, gardiquimod 7.5 μM.
Test [3] concerns the target human TLR8 (Homo sapiens (Human), UniProt Q9NR97). Nature of the test: TLR8 inhibition reporter assay (HEK-Blue cells, SEAP reporter, R848 stimulation).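 Also: compounds tested from 0.05 nM to 50 µM, 22 h at 37 °C, SEAP measured with HEK-Blue Detection, inhibition relative to agonist plus DMSO versus a known inhibitor.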 To be noted: read-out: TLR8 IC50, HEK-Blue cells overexpressing human TLR8, R848 15.9 μM.

pIC50: −log10 of the molar value.

Sequence of human TLR7 (Q9NYK1 27-1049): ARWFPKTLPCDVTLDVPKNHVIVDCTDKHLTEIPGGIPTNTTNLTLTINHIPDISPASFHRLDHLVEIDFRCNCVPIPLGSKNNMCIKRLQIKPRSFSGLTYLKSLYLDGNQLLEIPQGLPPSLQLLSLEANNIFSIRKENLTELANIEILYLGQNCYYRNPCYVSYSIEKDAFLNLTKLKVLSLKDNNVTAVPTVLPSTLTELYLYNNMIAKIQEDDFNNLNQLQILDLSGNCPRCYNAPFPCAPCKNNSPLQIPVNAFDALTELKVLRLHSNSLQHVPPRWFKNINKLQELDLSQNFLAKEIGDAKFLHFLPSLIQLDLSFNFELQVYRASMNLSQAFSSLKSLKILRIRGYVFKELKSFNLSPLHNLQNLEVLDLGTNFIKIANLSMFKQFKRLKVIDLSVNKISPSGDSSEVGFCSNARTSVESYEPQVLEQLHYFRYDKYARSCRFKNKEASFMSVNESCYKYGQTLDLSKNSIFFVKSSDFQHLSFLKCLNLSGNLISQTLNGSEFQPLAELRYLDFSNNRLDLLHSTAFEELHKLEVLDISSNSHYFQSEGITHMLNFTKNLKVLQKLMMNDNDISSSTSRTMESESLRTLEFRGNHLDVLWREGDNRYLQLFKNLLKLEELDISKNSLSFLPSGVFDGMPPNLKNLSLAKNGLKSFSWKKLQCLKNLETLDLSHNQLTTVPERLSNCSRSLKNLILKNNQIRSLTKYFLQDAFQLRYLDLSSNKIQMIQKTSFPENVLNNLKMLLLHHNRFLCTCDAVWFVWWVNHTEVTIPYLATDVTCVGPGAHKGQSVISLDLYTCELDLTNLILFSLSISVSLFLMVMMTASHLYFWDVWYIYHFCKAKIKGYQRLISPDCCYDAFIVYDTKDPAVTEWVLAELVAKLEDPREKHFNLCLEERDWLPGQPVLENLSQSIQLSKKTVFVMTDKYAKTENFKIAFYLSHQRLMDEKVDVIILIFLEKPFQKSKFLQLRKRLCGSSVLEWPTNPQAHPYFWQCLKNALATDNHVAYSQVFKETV
Sequence of human TLR8 (Q9NR97 27-1041): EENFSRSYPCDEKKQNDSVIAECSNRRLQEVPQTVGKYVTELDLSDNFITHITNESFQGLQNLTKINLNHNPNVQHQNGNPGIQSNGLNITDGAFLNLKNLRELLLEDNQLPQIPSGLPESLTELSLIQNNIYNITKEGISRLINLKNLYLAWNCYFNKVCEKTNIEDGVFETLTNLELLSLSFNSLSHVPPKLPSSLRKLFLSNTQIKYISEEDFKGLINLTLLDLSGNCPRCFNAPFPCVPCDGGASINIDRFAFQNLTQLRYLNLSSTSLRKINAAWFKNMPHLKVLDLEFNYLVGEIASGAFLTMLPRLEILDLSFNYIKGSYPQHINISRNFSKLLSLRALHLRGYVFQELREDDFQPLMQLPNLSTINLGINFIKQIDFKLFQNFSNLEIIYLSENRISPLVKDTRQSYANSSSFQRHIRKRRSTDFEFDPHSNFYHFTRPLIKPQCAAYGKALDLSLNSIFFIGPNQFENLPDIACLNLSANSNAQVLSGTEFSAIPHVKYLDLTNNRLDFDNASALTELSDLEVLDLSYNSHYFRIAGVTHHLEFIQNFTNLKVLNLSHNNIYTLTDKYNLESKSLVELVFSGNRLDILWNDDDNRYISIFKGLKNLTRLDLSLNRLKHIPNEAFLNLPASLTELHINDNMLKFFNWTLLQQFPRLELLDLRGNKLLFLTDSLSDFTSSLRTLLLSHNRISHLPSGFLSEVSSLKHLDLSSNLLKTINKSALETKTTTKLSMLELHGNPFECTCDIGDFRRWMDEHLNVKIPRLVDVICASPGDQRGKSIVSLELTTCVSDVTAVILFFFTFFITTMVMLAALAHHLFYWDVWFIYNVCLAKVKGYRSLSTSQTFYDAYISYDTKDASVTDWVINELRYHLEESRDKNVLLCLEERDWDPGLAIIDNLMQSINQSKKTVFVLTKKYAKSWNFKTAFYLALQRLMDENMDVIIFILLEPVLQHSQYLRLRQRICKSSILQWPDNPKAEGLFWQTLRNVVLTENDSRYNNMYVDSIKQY
Sequence of human TLR9 (Q9NR96 26-1032): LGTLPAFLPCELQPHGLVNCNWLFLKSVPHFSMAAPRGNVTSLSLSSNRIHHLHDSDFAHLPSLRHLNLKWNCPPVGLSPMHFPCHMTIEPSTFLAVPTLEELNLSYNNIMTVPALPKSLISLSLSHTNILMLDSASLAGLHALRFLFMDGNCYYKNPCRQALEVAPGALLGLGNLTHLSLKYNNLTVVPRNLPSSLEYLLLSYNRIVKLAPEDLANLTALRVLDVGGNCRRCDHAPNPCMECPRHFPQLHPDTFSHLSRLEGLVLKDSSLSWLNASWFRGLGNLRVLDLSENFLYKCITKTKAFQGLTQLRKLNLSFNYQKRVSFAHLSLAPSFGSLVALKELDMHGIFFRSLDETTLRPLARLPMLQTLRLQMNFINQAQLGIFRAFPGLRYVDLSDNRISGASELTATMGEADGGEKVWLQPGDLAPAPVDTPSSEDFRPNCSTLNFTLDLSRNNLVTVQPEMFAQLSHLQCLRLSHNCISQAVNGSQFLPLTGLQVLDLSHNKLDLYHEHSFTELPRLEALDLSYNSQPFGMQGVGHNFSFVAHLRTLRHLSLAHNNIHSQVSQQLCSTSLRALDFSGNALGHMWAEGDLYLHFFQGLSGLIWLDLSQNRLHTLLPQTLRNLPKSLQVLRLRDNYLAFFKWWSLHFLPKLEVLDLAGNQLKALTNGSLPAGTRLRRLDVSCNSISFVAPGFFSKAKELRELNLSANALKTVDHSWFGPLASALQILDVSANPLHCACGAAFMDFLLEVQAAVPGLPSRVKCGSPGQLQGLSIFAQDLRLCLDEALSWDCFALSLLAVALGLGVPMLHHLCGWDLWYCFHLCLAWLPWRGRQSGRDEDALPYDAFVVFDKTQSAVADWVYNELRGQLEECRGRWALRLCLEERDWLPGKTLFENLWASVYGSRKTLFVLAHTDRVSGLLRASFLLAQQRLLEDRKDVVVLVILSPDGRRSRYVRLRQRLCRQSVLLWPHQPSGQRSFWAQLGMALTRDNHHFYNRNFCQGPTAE

In general, pIC50 refers to −log10 of the IC50, conventionally taken in molar units. Consider `CCc1c(-c2ccnc(C)c2)[nH]c2ccc(C3CCN(C(=O)C4CCNC4)CC3)cc12` (stereo not drawn) [Example 595, (4-(3-ethyl-2-(2-methylpyridin-4-yl)-1H-indol-5-yl)piperidin-1-yl)(pyrrolidin-3-yl)methanone], for which the pIC50 in test [1] was 6.46; in test [2], 7.07; in test [3] it was 7.49.

`Cc1cc(-c2[nH]c3ccc(C4CCN(C(=O)C5(C)COC5)CC4)cc3c2C(C)C)ccn1` [Example 596, (4-(3-isopropyl-2-(2-methylpyridin-4-yl)-1H-indol-5-yl)piperidin-1-yl)(3-methyloxetan-3-yl)methanone]: the pIC50 is 4.35 in test [1], 7.48 in test [2] and 6.99 in test [3].

As to `Cc1cc(-c2[nH]c3ccc(C4CCN(C(=O)C5CCOCC5)CC4)cc3c2C(C)C)ccn1` [Example 597, (4-(3-isopropyl-2-(2-methylpyridin-4-yl)-1H-indol-5-yl)piperidin-1-yl)(tetrahydro-2H-pyran-4-yl)methanone], the negative logarithm of the IC50 (pIC50) is 4.57 in test [1], 7.34 in test [2] and 6.93 in test [3].

Take `Cc1cc(-c2[nH]c3ccc(C4CCN(C(=O)C5CCOC(C(C)C)C5)CC4)cc3c2C(C)C)ccn1` (stereo not drawn) [Example 598, (4-(3-isopropyl-2-(2-methylpyridin-4-yl)-1H-indol-5-yl)piperidin-1-yl)(2-isopropyltetrahydro-2H-pyran-4-yl)methanone]: the negative-log IC50 (pIC50) is 5.00 in test [1], 7.00 in test [2] and 6.43 in test [3].

Turning to `Cc1cc(-c2[nH]c3ccc(C4CCN(C(=O)C5CCOC5)CC4)cc3c2C(C)C)ccn1` (stereo not drawn) [Example 599, (4-(3-isopropyl-2-(2-methylpyridin-4-yl)-1H-indol-5-yl)piperidin-1-yl)(tetrahydrofuran-3-yl)methanone], the figures for the negative logarithm of the IC50 (pIC50) in test [1], in test [2] and in test [3] were 4.36, 7.73 and 6.75, respectively.

As for `Cc1cc(-c2[nH]c3ccc(C4CCN(C(=O)CC(F)(F)F)CC4)cc3c2C(C)C)ccn1` [Example 600, 3,3,3-trifluoro-1-(4-(3-isopropyl-2-(2-methylpyridin-4-yl)-1H-indol-5-yl)piperidin-1-yl)propan-1-one], the negative-log IC50 (pIC50) in test [1] is less than 4.30; in test [2] it was 6.92; in test [3] it was 6.57.

With `Cc1cc(-c2[nH]c3ccc(C4CCN(C(=O)C(C)(C)C)CC4)cc3c2C(C)C)ccn1` [Example 601, 1-(4-(3-isopropyl-2-(2-methylpyridin-4-yl)-1H-indol-5-yl)piperidin-1-yl)-2,2-dimethylpropan-1-one], the pIC50 in test [1] was 4.47; in test [2], 7.00; in test [3], 6.41.

For the molecule `Cc1cc(-c2[nH]c3ccc(C4CCN(C(=O)C(C)C)CC4)cc3c2C(C)C)ccn1` [Example 602, 1-(4-(3-isopropyl-2-(2-methylpyridin-4-yl)-1H-indol-5-yl)piperidin-1-yl)-2-methylpropan-1-one], the results for the pIC50 in test [1], in test [2] and in test [3] were 4.49, 7.61 and 6.80, respectively.

Turning to `CCC(=O)N1CCC(c2ccc3[nH]c(-c4ccnc(C)c4)c(C(C)C)c3c2)CC1` [Example 603, 1-(4-(3-isopropyl-2-(2-methylpyridin-4-yl)-1H-indol-5-yl)piperidin-1-yl)propan-1-one], the negative logarithm of the IC50 (pIC50) is 4.43 in test [1], 7.31 in test [2] and 6.64 in test [3].

As for `Cc1cc(-c2[nH]c3ccc(C4CCN(C(=O)c5ccon5)CC4)cc3c2C(C)C)ccn1` [Example 604, (4-(3-isopropyl-2-(2-methylpyridin-4-yl)-1H-indol-5-yl)piperidin-1-yl)(isoxazol-3-yl)methanone], the pIC50 in test [1] was 4.64; in test [2], 7.60; in test [3], 6.72.

For the molecule `Cc1cc(-c2[nH]c3ccc(C4CCN(C(=O)C5(C(F)(F)F)CC5)CC4)cc3c2C(C)C)ccn1` [Example 605, (4-(3-isopropyl-2-(2-methylpyridin-4-yl)-1H-indol-5-yl)piperidin-1-yl)(1-(trifluoromethyl)cyclopropyl)methanone], the negative logarithm of the IC50 (pIC50) was 4.85 in test [1], 7.11 in test [2] and 6.91 in test [3].

For the molecule `Cc1cc(-c2[nH]c3ccc(C4CCN(C(=O)C5CC5)CC4)cc3c2C(C)C)ccn1` [Example 606, cyclopropyl(4-(3-isopropyl-2-(2-methylpyridin-4-yl)-1H-indol-5-yl)piperidin-1-yl)methanone], the results for the pIC50 in test [1], in test [2] and in test [3] were 4.39, 7.25 and 6.73, respectively.

In the case of `Cc1cc(-c2[nH]c3ccc(C4CCN(C(=O)C5CCN(C)C(=O)C5)CC4)cc3c2C(C)C)ccn1` (stereo not drawn) [Example 607, 4-(4-(3-isopropyl-2-(2-methylpyridin-4-yl)-1H-indol-5-yl)piperidine-1-carbonyl)-1-methylpiperidin-2-one], the pIC50 was less than 4.30 in test [1], 7.03 in test [2] and 6.73 in test [3].

Turning to `Cc1cc(-c2[nH]c3ccc(C4CCN(C(=O)CS(C)(=O)=O)CC4)cc3c2C(C)C)ccn1` [Example 608, 1-(4-(3-isopropyl-2-(2-methylpyridin-4-yl)-1H-indol-5-yl)piperidin-1-yl)-2-(methylsulfonyl)ethan-1-one], the results for the pIC50 in test [1], in test [2] and in test [3] were 5.73, 7.29 and 6.73, respectively.

Turning to `Cc1cc(-c2[nH]c3ccc(C4CCN(C(=O)c5cscn5)CC4)cc3c2C(C)C)ccn1` [Example 609, (4-(3-isopropyl-2-(2-methylpyridin-4-yl)-1H-indol-5-yl)piperidin-1-yl)(thiazol-4-yl)methanone], the negative-log IC50 (pIC50) in test [1] is 4.67; in test [2], 7.42; in test [3] it was 6.67.

Consider `Cc1cc(-c2[nH]c3ccc(C4CCN(C(=O)C5(C)CC5)CC4)cc3c2C(C)C)ccn1` [Example 610, (4-(3-isopropyl-2-(2-methylpyridin-4-yl)-1H-indol-5-yl)piperidin-1-yl)(1-methylcyclopropyl)methanone], for which the negative-log IC50 (pIC50) in test [1] was 4.32; in test [2], 7.31; in test [3], 6.79.

For `Cc1cc(-c2[nH]c3ccc(C4CCN(C(=O)C5(C#N)CC5)CC4)cc3c2C(C)C)ccn1` [Example 611, 1-(4-(3-isopropyl-2-(2-methylpyridin-4-yl)-1H-indol-5-yl)piperidine-1-carbonyl)cyclopropane-1-carbonitrile], the negative-log IC50 (pIC50) is 5.02 in test [1], 7.71 in test [2] and 6.97 in test [3].

On to `Cc1cc(-c2[nH]c3ccc(C4CCN(C(=O)C5CNC(=O)C5)CC4)cc3c2C(C)C)ccn1` (stereo not drawn) [Example 612, 4-(4-(3-isopropyl-2-(2-methylpyridin-4-yl)-1H-indol-5-yl)piperidine-1-carbonyl)pyrrolidin-2-one], for which the negative-log IC50 (pIC50) in test [1] was 4.78; in test [2] it was 7.14; in test [3] it was 6.79.

Regarding `Cc1cc(-c2[nH]c3ccc(C4CCN(C(=O)C5CC(=O)N(C(C)(C)C)C5)CC4)cc3c2C(C)C)ccn1` (stereo not drawn) [Example 613, 1-(tert-butyl)-4-(4-(3-isopropyl-2-(2-methylpyridin-4-yl)-1H-indol-5-yl)piperidine-1-carbonyl)pyrrolidin-2-one], the negative logarithm of the IC50 (pIC50) in test [1] was 5.12; in test [2], 7.26; in test [3] it was 6.69.
